Test results published in patent US9668993B2, “Non-steroidal anti-inflammatory drug dosing regimen” (Johnson & Johnson Consumer Inc., priority 2003, dated 2017).

System: moderate to severe post-operative dental pain
Experiment: PK/PD dental pain study, pain relief scores and pain intensity differences over 12 hours
Type: in vivo, human
Details: for pain relief during the first four hours: compared with the other treatments
Procedure: A double-blind, randomized, parallel, placebo-controlled, single center, PK/PD dental pain study was conducted over a 12 hour observation period to evaluate the pharmacokinetic, pharmacodynamic, efficacy and safety profiles of certain ibuprofen dosing regimens. Specifically, a single dose of 600 mg ibuprofen extended release caplets was compared with equivalent total doses of ibuprofen immediate release 200 mg caplets administered in three different dosing regimens as well as placebo in the treatment of moderate to severe post-operative dental pain.
The ibuprofen was administered as ibuprofen extended release 600 mg caplets or one or more ibuprofen immediate release 200 mg caplets.
The patients evaluated in this study consisted of male or non-pregnant and non-lactating female out-patient volunteers, 16 years of age or older, complaining of moderate to severe pain following the surgical extraction of three or four third molars with at least one partial or complete bony impacted third mandibular molar. The term impacted included: partial bony impaction, bony impaction, or complicated bony impaction. A total of 210 patients were entered into the study. 208 patients were eligible for the efficacy analyses.
All patients who met the entrance criteria were enrolled in one of two study sub-groups. One sub-group of patients had both pharmacokinetic and pharmacodynamic evaluation (PK group). The other sub-group of patients had only the analgesic efficacy evaluations (non-PK group). A separate randomization schedule was used for each of the two sub-groups. Patients from both subgroups were assigned at random to one of the five following treatments:
Patients' assessments of pain intensity and pain relief as well as blood samples for plasma ibuprofen analysis were obtained at the study site at hours 0, 0.25, 0.5, 1, 1.5, 2, 2.5, 3, 4, 4.5, 5, 6, 7, 8, 8.5, 9, 10, 11 and 12. A stopwatch technique was used to measure the onset of meaningful pain relief.

CC(C)Cc1ccc(C(C)C(=O)O)cc1 (centres unmarked) [ibuprofen, 2-(4-isobutylphenyl)-propionic acid]
pain relief during the first four hours (400/200/0 regimen: immediate release 400 mg at 0 hour, 200 mg at 4 hours): superior pain relief over the other treatments
pain relief over the entire 12 hour study period (400/200/0 regimen: immediate release 400 mg at 0 hour, 200 mg at 4 hours, patients after third molar extraction): excellent pain relief
pain relief scores during the 4 to 12 hour interval (400/200/0 regimen, no further ibuprofen after the first four hours): highest pain relief scores
pain intensity differences (PID) over the 12 hour study period (400/200/0 regimen, particularly after the four hour mark): best PID
pain relief during the first four hours (600/0/0 immediate release regimen: 600 mg single dose at 0 hour): superior pain relief over the other treatments
